Test results reported in article PMC2151574 (The Journal of General Physiology, 2006).
Several values for one entry are separate records, joined by “and”; a condition that tells them apart may be missing. Identical values can stand only once. Entries after “also recorded” stand apart in the source; their conditions may differ. Like-named read-outs stand apart in the source and are kept apart here. Each block holds one molecule with its values, some of them ahead of it. Where a SMILES comes first, the peptide text is derived from it.

Legend:
BK channels [1] = settings: cited from earlier work; for time dependence of block of BK currents: internal
[2] = target: T1, E321N, E324N mutant BK channel (Mus musculus, UniProt Q08460, E386N/E389N); assay: Single channel recordings, E321N, E324N mutant; format: cell-based
[3] = test system: S6/2-KcsA BK channel construct; format: cell-based, mouse
[4] = target: T1, E321N, E324N mutant BK channel; format: cell-based; settings: for decrease of apparent affinity of block in E321N, E324N mutant vs wild type: macroscopic currents
[5] = target: wild-type BK channel (mslo, mbr5) (Mus musculus, UniProt Q08460); assay: Macroscopic block of wild-type BK currents, inside-out patch clamp; format: cell-based; settings: for time constant of block, τfast (double exponential fit) / time constant of block, τslow (double exponential fit): inside-out patch, 22°C, holding potential −80 mV
[6] = target: T2, wild-type BK channel (mslo) (Mus musculus, UniProt Q08460); assay: Single channel recordings, wild-type BK channel; format: cell-based; settings: n = 5
[7] = target: S6/2-KcsA BK channel construct (Mus musculus, UniProt Q08460, A378T/A381G/E386A/E389T/I387L/I388A/I391F/L377I/L390W/M379S/P385A/S382L/V384T/Y383V); format: cell-based
[8] = target: T2, wild-type BK channel (mslo); assay: Competition between TBA and EBP on macroscopic BK currents; format: cell-based
BK channels [9] = settings: cited from earlier work
Shaker channels = settings: ref Murrell-Lagnado and Aldrich, 1993b; cited from earlier work
[10] = target: T2, wild-type BK channel (mslo); assay: State dependence of EBP block in High and Low Ca2+; format: cell-based; settings: 3 μM EBP
[11] = target: T2, wild-type BK channel (mslo); assay: Deactivation; format: cell-based
[12] = test system: Shaker channel (ShB Δ6-46); assay: Macroscopic block of Shaker currents, inside-out patch clamp; format: cell-based; settings: identical conditions, holding potential −120 mV
[13] = test system: other K^+ channels and CNG channels; settings: most other K^+ channels; cited from earlier work
[14] = 500 μM TBA on top of 3 μM EBP, compared with 3 μM EBP alone
[15] = EBP at around half block concentration, 120 mV
[16] = when roughly half of the channels are blocked

T1 sequence (Q08460 66-1209 E386N/E389N limits assumed): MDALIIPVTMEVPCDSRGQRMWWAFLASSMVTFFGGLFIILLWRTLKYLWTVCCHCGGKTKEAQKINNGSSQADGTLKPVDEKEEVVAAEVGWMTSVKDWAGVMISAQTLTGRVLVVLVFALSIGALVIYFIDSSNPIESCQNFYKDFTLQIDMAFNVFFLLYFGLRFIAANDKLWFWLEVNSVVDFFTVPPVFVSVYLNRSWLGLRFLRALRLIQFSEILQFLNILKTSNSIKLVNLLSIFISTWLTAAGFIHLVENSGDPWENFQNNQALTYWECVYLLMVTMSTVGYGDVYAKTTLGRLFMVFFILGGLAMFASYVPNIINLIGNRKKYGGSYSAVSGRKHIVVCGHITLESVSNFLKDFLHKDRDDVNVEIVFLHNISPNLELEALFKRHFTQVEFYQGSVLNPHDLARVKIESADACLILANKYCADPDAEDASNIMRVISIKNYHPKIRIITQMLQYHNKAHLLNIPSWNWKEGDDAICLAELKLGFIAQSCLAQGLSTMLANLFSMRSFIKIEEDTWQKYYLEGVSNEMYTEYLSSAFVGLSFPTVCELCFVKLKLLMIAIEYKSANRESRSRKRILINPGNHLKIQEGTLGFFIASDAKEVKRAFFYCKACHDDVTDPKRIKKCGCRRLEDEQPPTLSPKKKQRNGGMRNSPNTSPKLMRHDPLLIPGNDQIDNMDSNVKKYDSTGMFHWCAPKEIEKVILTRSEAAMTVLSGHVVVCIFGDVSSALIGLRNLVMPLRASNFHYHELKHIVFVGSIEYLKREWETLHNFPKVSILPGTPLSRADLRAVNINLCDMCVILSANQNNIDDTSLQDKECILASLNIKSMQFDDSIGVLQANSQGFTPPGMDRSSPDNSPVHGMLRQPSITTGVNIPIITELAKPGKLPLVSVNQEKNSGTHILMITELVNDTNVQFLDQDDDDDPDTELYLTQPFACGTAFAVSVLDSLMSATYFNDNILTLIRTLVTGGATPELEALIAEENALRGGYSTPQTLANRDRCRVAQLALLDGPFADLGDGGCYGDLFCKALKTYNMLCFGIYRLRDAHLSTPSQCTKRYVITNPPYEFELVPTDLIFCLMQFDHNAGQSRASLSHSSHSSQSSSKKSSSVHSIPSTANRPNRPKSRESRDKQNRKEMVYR
Sequence of wild-type BK channel (mslo, mbr5) (Q08460 66-1209 limits assumed): as the sequence (Q08460 66-1209 E386N/E389N limits assumed) above, with N321E, N324E counted along it
T2 sequence (Q08460 66-1209 limits assumed): as the sequence (Q08460 66-1209 E386N/E389N limits assumed) above, with N321E, N324E counted along it
Sequence of S6/2-KcsA BK channel construct (Mus musculus, UniProt Q08460, A378T/A381G/E386A/E389T/I387L/I388A/I391F/L377I/L390W/M379S/P385A/S382L/V384T/Y383V) (Q08460 28-1196 isoform Q08460-2 with the stated changes): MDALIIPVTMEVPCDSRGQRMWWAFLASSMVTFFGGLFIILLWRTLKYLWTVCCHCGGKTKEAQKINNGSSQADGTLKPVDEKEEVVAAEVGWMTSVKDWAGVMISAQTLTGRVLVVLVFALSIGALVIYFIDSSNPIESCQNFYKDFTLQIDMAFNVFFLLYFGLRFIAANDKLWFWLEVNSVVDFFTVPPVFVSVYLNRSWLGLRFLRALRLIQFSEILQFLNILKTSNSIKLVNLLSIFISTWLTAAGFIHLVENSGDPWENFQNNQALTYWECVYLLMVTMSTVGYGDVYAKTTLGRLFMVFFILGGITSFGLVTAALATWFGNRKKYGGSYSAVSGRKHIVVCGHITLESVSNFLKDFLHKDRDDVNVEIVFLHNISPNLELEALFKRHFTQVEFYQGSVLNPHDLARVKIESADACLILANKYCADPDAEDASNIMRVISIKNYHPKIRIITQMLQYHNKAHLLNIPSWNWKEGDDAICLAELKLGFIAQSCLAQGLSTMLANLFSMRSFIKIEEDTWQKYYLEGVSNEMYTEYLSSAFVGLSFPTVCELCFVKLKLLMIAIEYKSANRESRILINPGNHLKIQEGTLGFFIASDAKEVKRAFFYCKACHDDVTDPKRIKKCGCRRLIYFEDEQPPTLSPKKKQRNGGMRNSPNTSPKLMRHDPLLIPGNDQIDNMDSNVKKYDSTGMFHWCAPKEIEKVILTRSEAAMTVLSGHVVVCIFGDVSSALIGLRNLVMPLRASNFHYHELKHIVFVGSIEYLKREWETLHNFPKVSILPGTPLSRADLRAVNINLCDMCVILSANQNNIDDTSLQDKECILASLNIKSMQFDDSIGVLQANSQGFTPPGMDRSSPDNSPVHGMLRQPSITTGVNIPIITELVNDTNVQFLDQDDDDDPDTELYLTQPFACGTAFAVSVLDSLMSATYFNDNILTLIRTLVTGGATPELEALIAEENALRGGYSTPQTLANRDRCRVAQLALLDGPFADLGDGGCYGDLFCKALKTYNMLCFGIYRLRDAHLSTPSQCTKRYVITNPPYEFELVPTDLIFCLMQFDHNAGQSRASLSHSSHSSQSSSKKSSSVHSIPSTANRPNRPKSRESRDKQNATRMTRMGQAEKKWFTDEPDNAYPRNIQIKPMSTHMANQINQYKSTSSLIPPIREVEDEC

Molecule: CCCC[N+](CCCC)(CCCC)Cc1ccc(C(=O)c2ccccc2)cc1 [bbTBA]
- access of blocker to BK channels (BK channels [1]; ref Wilkens and Aldrich, 2006): may not be restricted by a cytoplasmic gate

- association rate ([2]; E321N, E324N mutant, 40 μM C10, mean ± SD, n = 5): 12.5 ± 1.1 ms^−1
- dissociation rate of block (mean shut dwell time) ([2]; E321N, E324N mutant, 120 mV, mean ± SD, n = 5): 7.8 ± 0.6 ms^−1
- Hill coefficient n (C10) ([4]; E321N, E324N mutant, 100 mV, eight patches): 1.01
- decrease of apparent affinity of block in E321N, E324N mutant vs wild type [4]: ~2.5 fold
- Hill coefficient n (C10) ([5]; wild type, 100 mV, six patches): 0.97
- affinity of C10 relative to that of TBA ([5]; wild-type BK channels): ~30 times
- association rate ([6]; 15 μM C10, mean ± SD): 9.0 ± 1.6 ms^−1
- dissociation rate of block (mean shut dwell time) ([6]; 120 mV, mean ± SD): 6.4 ± 0.5 ms^−1
- affinity of C10 vs TBA, S6/2-KcsA [7]: lower affinity than TBA
- decrease of apparent affinity of C10 in S6/2-KcsA vs wild type [7]: almost two orders of magnitude
- block of macroscopic S6/2-KcsA currents by C10 ([7]; 1 mM C10): about half the macroscopic currents
- Hill coefficient n (C10) ([7]; S6/2-KcsA, 100 mV, five patches): 0.95
Molecule: CCCCCCCCCC[N+](CC)(CC)CC [C10, Decyltriethylammonium]
- time dependence of block of BK currents (BK channels [1]; ref Li and Aldrich, 2004): without apparent time dependence
- block events in single S6/2-KcsA channels ([3]; 1 mM C10): too fast to resolve

- reduction of peak current by added TBA [8, 14]: about half
- slowing of time-dependent EBP block by added TBA [8, 14]: about twofold
- single channel block in mutant vs wild type ([2]; 1 mM TBA in E321N, E324N mutant vs 0.4 mM in wild type, 120 mV): qualitatively very similar
- block of mutant currents by TBA ([4]; 20 mM TBA, E321N, E324N mutant): ~100%
- Hill coefficient n (TBA) ([4]; E321N, E324N mutant, 120 mV, nine patches): 0.89
- decrease of apparent affinity of block in E321N, E324N mutant vs wild type [4]: ~2.5 fold
- Hill coefficient n (TBA) ([5]; wild type, 120 mV, five patches): 0.87
- affinity of TBA in S6/2-KcsA vs wild-type BK [7]: almost exactly the same affinity
- block of macroscopic S6/2-KcsA currents by TBA ([7]; 100 μM TBA, 120 mV): ~20%
- block of mutant currents by TBA ([7]; 20 mM TBA, S6/2-KcsA): ~100%
- Hill coefficient n (TBA) ([7]; S6/2-KcsA, 120 mV, five patches): 0.97
Molecule: CCCC[N+](CCCC)(CCCC)CCCC [TBA, Tetrabutylammonium]
- inhibition of BK current at steady state (BK channels [1]; 500 μM TBA, positive potentials, ref Li and Aldrich, 2004): ~50%
- block of BK channels (BK channels [1]; internal TBA, "our previous study", ref Li and Aldrich, 2004): fast block of BK channels at submillimolar concentrations
- time dependence of block of BK currents (BK channels [1]; ref Li and Aldrich, 2004): without apparent time dependence
- block of single S6/2-KcsA channels vs wild-type BK ([3]; 0.4 mM TBA): kinetically very similar
- sensitivity of S6/2-KcsA channels to TBA ([7]; voltage ramp −80 to 200 mV, 0.3 and 10 mM TBA): sensitive to millimolar concentrations of TBA

Molecule: CSCC[C@H](NC(C)=O)C(=O)N[C@@H](C)C(=O)N[C@@H](C)C(=O)N[C@H](C(=O)N[C@@H](C)C(=O)NCC(=O)N[C@@H](CC(C)C)C(=O)N[C@@H](Cc1ccc(O)cc1)C(=O)NCC(=O)N[C@@H](CC(C)C)C(=O)NCC(=O)N[C@@H](CCCCN)C(=O)N[C@@H](CCCCN)C(=O)N[C@@H](CCCNC(=N)N)C(=O)N[C@@H](CCC(N)=O)C(=O)N[C@@H](Cc1c[nH]cn1)C(=O)N[C@@H](CCCNC(=N)N)C(=O)N[C@@H](CCCCN)C(=O)N[C@@H](CCCCN)C(=O)N[C@@H](CCC(N)=O)C(N)=O)C(C)C [EBP] (Ac-MAAVAGLYGLGKKRQHRKKQ-NH2)
- type of block events, single BK channels (BK channels [9]; near 0 mV, ref Toro et al., 1994): mostly short block events; also recorded: predominantly short block events
- affinity for BK channels (BK channels [9]; single channel, ref Toro et al., 1994): higher affinity for BK channels than ShBP
- time constant of block, τ ([8]; 3 μM EBP alone): 2.8 ms
- time constant of block, τ ([8]; 3 μM EBP plus 500 μM TBA): 5.6 ms
- competition of TBA and EBP binding ([8]; 3 μM EBP, 500 μM TBA, positive potentials): mutually exclusive
- duration of block events, single E321N, E324N channel ([2]; 100 μM EBP, 80 mV): mainly short block events lasting a few milliseconds
- block events in single S6/2-KcsA channels ([3]; 100 μM EBP, 120 mV): fails to result in resolvable block events
- dissociation rate of EBP in S6/2-KcsA channels vs TBA ([3]; 100 μM each): even faster than that of TBA
- affinity for Shaker channels vs native ShBP (Shaker channels): much higher affinity for Shaker channels
- association rate for Shaker channels vs native ShBP (Shaker channels): significantly higher association rate for Shaker channels than native ShBP
- block of E321N, E324N currents by EBP ([4]; 100 μM EBP, 120 mV): < 60%
- decrease of apparent affinity of EBP block in double mutant vs wild type ([4]; 120 mV, from fitted dose responses): more than two orders of magnitude
- Hill coefficient n (EBP) ([4]; E321N, E324N mutant, 120 mV, 11 patches): 0.72
- time constant of dominating component of block [4, 15]: a few milliseconds
- time constant of very small component of block [4, 15]: hundreds of milliseconds
- rising phase of BK currents (activation) vs control ([5]; 1 μM EBP, 120 mV): largely unchanged compared with control
- time constant of block, τ (single exponential fit) ([5]; 1 μM EBP, 120 mV, macroscopic): 17.6 ms
- fraction of remaining current (I/Io), voltage dependence ([5]; 1 μM EBP, end of 60-ms pulses, n = 6): decreases with increased membrane potentials
- block of wild-type BK currents ([5]; 3 μM EBP): nearly complete block
- single channel openings at steady-state block ([5]; 3 μM EBP): single channel openings to the full current level are clearly evident
- time constant of block, τ (single exponential fit) ([5]; 3 μM EBP, 120 mV, macroscopic): 4.5 ms
- time constant of block, τ (single exponential fit) ([5]; 10 μM EBP, 120 mV, macroscopic): 1.1 ms
- 1/τ of block, concentration dependence ([5]; 1, 3 and 10 μM EBP, positive voltages (≥40 mV), n = 6): linearly dependent on the concentration of EBP
- time constant of the single exponential decay ([5]; low concentration of EBP blocking roughly half of the channels (unpublished data)): ~100 ms
- association rate constant (Kon), voltage dependence ([5]; slope of 1/τ vs EBP concentration): larger depolarizations resulting in higher association rate constants
- Hill coefficient n (EBP) ([5]; wild type, 120 mV, 500 ms pulses, 5 patches): 1.16
- fraction of preblock, Po ∼0 ([10]; High Ca^2+, lower end of range −80 to 80 mV): ~0
- relative amplitude of the test current, change with prepulse ([10]; Low Ca^2+, −80 to 80 mV, Po ∼0): doesn't change much
- state dependence of block ([10]; High and Low Ca^2+ solutions): much more favored in an open configuration than a closed one; also recorded: peptide binding is much more favored in an opened BK channel
- block of S6/2-KcsA current by EBP ([7]; 100 μM EBP, 120 mV, mean ± SD, n = 5): 23.0 ± 0.5% and ~20%
- apparent affinity of EBP for S6/2-KcsA vs E321N, E324N double mutant ([7]; 120 mV): about threefold lower
- apparent affinity of EBP for S6/2-KcsA vs wild-type BK ([7]; 120 mV): more than three orders of magnitude lower
- deactivation of BK channels ([11]; 3 μM EBP, tail current compared with control): slowed compared with the control trace; also recorded: Deactivation of BK channels is slowed by EBP
- normalized tail current time constant, τslow (double exponential fit) ([11]; 3 μM EBP, −160 mV after depolarization to 120 mV): 7.3 ms
- normalized tail current time constant, τfast (double exponential fit) ([11]; 3 μM EBP, −160 mV after depolarization to 120 mV (control τ = 0.25 ms)): 0.37 ms
- tail current time constant, slower component ([11]; EBP, negative potentials, relatively voltage insensitive): ~10 ms
- tail current time constant, fast component ([11]; EBP, −60 mV): ~2 ms
- tail current time constant, fast component ([11]; EBP, −160 mV): ~0.3 ms
- off rate at negative potentials ([11]; from modeling tail currents with a C↔O↔B model): ~100 s⁻¹

Molecule: MAAVAGLYGLGEDRQHRKKQ [ShBP]
- block of Shaker compared with BK currents [12]: slower block and higher apparent affinity
- lifetime of short block events, single BK channels (BK channels [9]; dominating, ref Foster et al., 1992, Toro et al., 1992, 1994): a few milliseconds
- lifetime of long block events, single BK channels (BK channels [9]; rare, ref Foster et al., 1992, Toro et al., 1992, 1994): hundreds of milliseconds
- dissociation rate for the short block of BK channels (BK channels [9]; ref Foster et al., 1992, Toro et al.): ~100 s⁻¹
- type of block events in other K+ channels [13]: only long block events
- dissociation rate, Shaker channels (Shaker channels): ~10 s⁻¹
- block of E321N, E324N currents by ShBP ([4]; 100 μM ShBP, 120 mV (unpublished data), roughly estimated): ~20%
- decrease in apparent affinity of ShBP by the double mutation ([4]; 120 mV): ~10 fold
- time constant of block, τfast (double exponential fit) ([5]; 30 μM ShBP, macroscopic): 2.0 ms
- time constant of block, τslow (double exponential fit) ([5]; 30 μM ShBP, macroscopic): 13.1 ms
- block of wild-type BK currents by ShBP ([5]; 100 μM ShBP, 120 mV): ~70%
- time constant of block, τfast (double exponential fit) ([5]; 100 μM ShBP, macroscopic): 0.7 ms
- time constant of block, τslow (double exponential fit) ([5]; 100 μM ShBP, macroscopic): 5.2 ms
- type of block events in BK channels ([5]; native ShBP): mainly short block events
- character of block events ([5]; when about half of the currents are blocked, macroscopic): the majority of the block events are short lived
- time constant of block, faster of two components [5, 16]: ~2 ms
- time constant of block, slower of two components [5, 16]: ~10 ms
